A word on the IC50: it is the midpoint of a concentration-inhibition curve.

Read-outs that look alike come from different tables or passages of the source. Where only a bound is given, the exact number is not on record here.

The target in the assay is Human Factor D (purified from human serum) (Homo sapiens (Human), UniProt P00746). The assay can be described thus: Human Factor D Assay. Format: biochemical. As to conditions: Human Factor D 80 nM, substrate Z-L-Lys-SBzl. The procedure:
The assay of Example 2 was used to determine the IC50's of the compounds. Other standard Factor D inhibition assays are also available.
Human Factor D (purified from human serum, Complement Technology, Inc.) at 80 nM final concentration is incubated with test compound at various concentrations for 5 min at room temperature in 50 mM Tris, 1M NaCl, pH 7.5. A synthetic substrate Z-L-Lys-SBzl and DTNB (Ellman's reagent) are added to final concentrations of 100 μM each. Absorbance at 405 nm (A405) is recorded at 30 second intervals for 30 minutes using a microplate spectrophotometer. IC50 values are calculated by nonlinear regression of Complement Factor D reaction rates as a function of test compound concentration.

Where [1] appears, read: Table 6, read-out: IC50 (Stars).

Human Factor D (purified from human serum), sequence (P00746 26-253): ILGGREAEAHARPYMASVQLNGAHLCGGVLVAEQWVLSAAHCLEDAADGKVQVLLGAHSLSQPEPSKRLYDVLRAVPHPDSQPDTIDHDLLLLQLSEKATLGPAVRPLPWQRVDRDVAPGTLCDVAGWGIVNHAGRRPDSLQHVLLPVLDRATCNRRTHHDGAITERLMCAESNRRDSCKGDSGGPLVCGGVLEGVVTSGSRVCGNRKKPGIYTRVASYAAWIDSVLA

As to `CC(=O)c1nn2c3c(cc(-c4cnc(C)cn4)cc13)CC=CCCCC(=O)NC[C@@]13C[C@@H](C(=O)Nc4nc(C(F)(F)F)ccc4C)N(C(=O)C2)[C@@H]1C3` [Compound T-219, (41R,43S,45R)-13-acetyl-N-(3-methyl-6-(trifluoromethyl)pyridin-2-yl)-15-(5-methylpyrazin-2-yl)-3,7-dioxo-11H-42,6-diaza-1(1,7)-indazola-4(2,5)-bicyclo[3.1.0]hexanacyclotridecaphan-11-ene-43-carboxamide], the 50% inhibitory concentration (IC50) (Table 6, read-out: IC50) was less than 1000 nM.
In the case of `Cc1ncc(-c2cc3c(C#N)nn4c3c(n2)CCCC=CCOC[C@@]23C[C@@H](C(=O)Nc5nc(C(F)(F)F)ccc5C)N(C(=O)C4)[C@@H]2C3)cn1` [Compound T-154, (41R,43S,45S)-13-cyano-N-(3-methyl-6-(trifluoromethyl)pyridin-2-yl)-15-(2-methylpyrimidin-5-yl)-3-oxo-11H-6-oxa-42-aza-1(1,7)-pyrazolo[3,4-c]pyridina-4(2,5)-bicyclo[3.1.0]hexanacyclododecaphan-8-ene-43-carboxamide], the IC50 under setting [1] was less than 1000 nM.
With `CC(=O)c1nn2c3c(cc(-c4cnc(C)nc4)cc13)CCCCCCC(=O)NC[C@@]13C[C@@H](C(=O)Nc4cc(Br)ccc4C4CC4)N(C(=O)C2)[C@@H]1C3` [Compound T-212, (41R,43S,45R)-13-acetyl-N-(6-bromo-3-cyclopropylpyridin-2-yl)-15-(2-methylpyrimidin-5-yl)-3,7-dioxo-11H-42,6-diaza-1(1,7)-indazola-4(2,5)-bicyclo[3.1.0]hexanacyclotridecaphane-43-carboxamide], the IC50 (Table 6, read-out: IC50) was less than 1000 nM.
As to “(41R,43S,45R)-42-(2-(3-acetyl-5-(2-methylpyrimidin-5-yl)-1H-indazol-1-yl)acetyl)-16-bromo-6-methyl-7-thia-42,6-diaza-1(2,3)-pyridina-4(3,5)-bicyclo[3.1.0]hexanacycloundecaphan-10-en-3-one 7,7-dioxide [Compound T-17]”, the IC50 (assay of Example 2, read-out: IC50 (Stars)) was less than 1000 nM.
Turning to `CC(=O)c1nn2c3c(nc(-c4cnc(C)nc4)cc13)CCCCCCC(=O)NC[C@@]13C[C@@H](C(=O)Nc4nc(Br)ccc4C)N(C(=O)C2)[C@@H]1C3` [Compound T-166, (41R,43S,45R)-13-acetyl-N-(6-bromo-3-methylpyridin-2-yl)-15-(2-methylpyrimidin-5-yl)-3,7-dioxo-11H-42,6-diaza-1(1,7)-pyrazolo[3,4-c]pyridina-4(2,5)-bicyclo[3.1.0]hexanacyclotridecaphane-43-carboxamide], the half-maximal inhibitory concentration (IC50) under setting [1] was less than 1000 nM.
The same measure, in the same setting: under `CC(=O)c1nn2c3c(nc(-c4cnc(C)nc4)cc13)CCCCCC(=O)NC[C@@]13C[C@@H](C(=O)Nc4nc(C(F)(F)F)ccc4C)N(C(=O)C2)[C@@H]1C3` [Compound T-124, (41R,43S,45R)-13-acetyl-N-(3-methyl-6-(trifluoromethyl)pyridin-2-yl)-15-(2-methylpyrimidin-5-yl)-3,7-dioxo-11H-42,6-diaza-1(1,7)-pyrazolo[3,4-c]pyridina-4(2,5)-bicyclo[3.1.0]hexanacyclododecaphane-43-carboxamide] stands less than 1000 nM.
Regarding `CC(=O)c1nn2c3c(cc(-c4cnc(C)nc4)cc13)CCCCCCC(=O)NC[C@@]13C[C@@H](C(=O)Nc4nc(Br)ccc4F)N(C(=O)C2)[C@@H]1C3` [Compound T-230, (41R,43S,45R)-13-acetyl-N-(6-bromo-3-fluoropyridin-2-yl)-15-(2-methylpyrimidin-5-yl)-3,7-dioxo-11H-42,6-diaza-1(1,7)-indazola-4(2,5)-bicyclo[3.1.0]hexanacyclotridecaphane-43-carboxamide], the half-inhibitory concentration (IC50) (Table 6, read-out: IC50) is less than 1000 nM.
Consider `CC(=O)c1cn2c3c(cc(-c4cnc(C)nc4)cc13)CCCCCCC(=O)NC[C@@]13C[C@@H](C(=O)Nc4nc(C(F)(F)F)ccc4C)N(C(=O)C2)[C@@H]1C3` [Compound T-159, (41R,43S,45R)-13-acetyl-N-(3-methyl-6-(trifluoromethyl)pyridin-2-yl)-15-(2-methylpyrimidin-5-yl)-3,7-dioxo-11H-42,6-diaza-1(1,7)-indola-4(2,5)-bicyclo[3.1.0]hexanacyclotridecaphane-43-carboxamide], for which the IC50 under setting [1] was less than 1000 nM.
Same read-out and setting: then `CC(=O)c1nn2c3c(cc(-c4cnc(C)nc4)cc13)CCCCCC(C)(C)C(=O)N(C)C[C@@]13C[C@@H](C(=O)Nc4nc(C(F)(F)F)ccc4C)N(C(=O)C2)[C@@H]1C3` [Compound T-186, (41R,43S,45R)-13-acetyl-6,8,8-trimethyl-N-(3-methyl-6-(trifluoromethyl)pyridin-2-yl)-15-(2-methylpyrimidin-5-yl)-3,7-dioxo-11H-42,6-diaza-1(1,7)-indazola-4(2,5)-bicyclo[3.1.0]hexanacyclotridecaphane-43-carboxamide], with less than 1000 nM.

The record behind these values is patent publication US11718626B2, “Macrocyclic compounds for treatment of medical disorders” (Achillion Pharmaceuticals, Inc., priority 2017, dated 2023).
